Experimental data reported in paper PMC9448386, “Discovery of novel conjugates of quinoline and thiazolidinone urea as potential anti-colorectal cancer agent” (Journal of Enzyme Inhibition and Medicinal Chemistry, 2022).

Assays:
[1] = tested on: HT-29 cells; assay: MTT assay, cytotoxic activity against HT-29; assay type: cell-based, human; details: SD shown
Text: (§1) Taking lead compound BC2021-104511-15i, Fruquintinib and Regorafenib as positive controls, the cytotoxic activity against HT-29, HCT-116, COLO-205 and FHC cell lines by MTT assay. Detailed operation could be found in our previous study.

[2] = tested on: COLO 205 cells; assay: MTT assay, cytotoxic activity against COLO 205; assay type: cell-based; details: MTT, average of three separate determinations, SD shown
Text: as §1

[3] = biological target: HGFR (Homo sapiens, UniProt P08581); assay: Mobility shift assay, HGFR kinase inhibition; assay type: biochemical; details: mean of two independent experiments
Sequence of HGFR (P08581 25-1390): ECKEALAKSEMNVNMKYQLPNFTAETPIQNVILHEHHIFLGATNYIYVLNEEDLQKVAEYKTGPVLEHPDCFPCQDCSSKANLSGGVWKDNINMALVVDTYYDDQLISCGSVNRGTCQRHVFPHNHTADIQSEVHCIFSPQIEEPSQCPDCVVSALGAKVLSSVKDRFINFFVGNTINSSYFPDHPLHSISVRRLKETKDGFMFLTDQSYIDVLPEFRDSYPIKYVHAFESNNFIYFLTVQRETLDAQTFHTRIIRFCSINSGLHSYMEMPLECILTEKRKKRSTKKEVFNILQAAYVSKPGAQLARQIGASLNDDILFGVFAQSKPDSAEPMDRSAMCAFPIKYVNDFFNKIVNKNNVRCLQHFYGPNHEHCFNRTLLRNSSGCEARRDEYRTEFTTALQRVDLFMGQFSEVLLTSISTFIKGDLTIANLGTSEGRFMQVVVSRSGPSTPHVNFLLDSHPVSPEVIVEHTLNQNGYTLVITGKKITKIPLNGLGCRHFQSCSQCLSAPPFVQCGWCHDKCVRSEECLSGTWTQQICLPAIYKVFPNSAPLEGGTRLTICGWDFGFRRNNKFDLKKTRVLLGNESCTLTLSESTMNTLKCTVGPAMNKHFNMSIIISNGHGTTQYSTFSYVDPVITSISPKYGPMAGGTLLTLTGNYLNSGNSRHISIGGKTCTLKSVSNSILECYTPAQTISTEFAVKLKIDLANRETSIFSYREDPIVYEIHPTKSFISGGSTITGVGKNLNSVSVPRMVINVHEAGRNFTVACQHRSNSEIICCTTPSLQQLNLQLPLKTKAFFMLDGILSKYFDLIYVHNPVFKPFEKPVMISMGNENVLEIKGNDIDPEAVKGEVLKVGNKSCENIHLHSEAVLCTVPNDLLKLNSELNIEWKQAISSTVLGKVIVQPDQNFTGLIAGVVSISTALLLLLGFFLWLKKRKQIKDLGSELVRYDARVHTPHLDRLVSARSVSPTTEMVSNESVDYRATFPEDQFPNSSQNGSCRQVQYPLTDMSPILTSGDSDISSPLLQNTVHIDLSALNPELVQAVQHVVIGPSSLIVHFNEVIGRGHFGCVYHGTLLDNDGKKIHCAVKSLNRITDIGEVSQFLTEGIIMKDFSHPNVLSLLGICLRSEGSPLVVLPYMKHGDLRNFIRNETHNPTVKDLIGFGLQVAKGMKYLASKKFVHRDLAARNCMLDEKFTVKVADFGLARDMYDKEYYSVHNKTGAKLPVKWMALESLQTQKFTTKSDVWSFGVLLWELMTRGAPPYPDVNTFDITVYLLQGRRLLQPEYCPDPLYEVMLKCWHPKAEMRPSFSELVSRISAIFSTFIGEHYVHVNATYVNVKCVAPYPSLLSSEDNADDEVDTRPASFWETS
Protocol: (§2) Kinase inhibitory activity against HGFR, MST1R, ABL, PDGFRβ, AXL, FLT3, RET, c-Src, and VEGFR-2 was evaluated by the mobility shift assay. Detailed operation could be found in our previous research.

[4] = biological target: MST1R (Homo sapiens, UniProt Q04912); assay: Mobility shift assay, MST1R kinase inhibition; assay type: biochemical; details: mean of two independent experiments
Sequence of MST1R (Q04912 25-1400): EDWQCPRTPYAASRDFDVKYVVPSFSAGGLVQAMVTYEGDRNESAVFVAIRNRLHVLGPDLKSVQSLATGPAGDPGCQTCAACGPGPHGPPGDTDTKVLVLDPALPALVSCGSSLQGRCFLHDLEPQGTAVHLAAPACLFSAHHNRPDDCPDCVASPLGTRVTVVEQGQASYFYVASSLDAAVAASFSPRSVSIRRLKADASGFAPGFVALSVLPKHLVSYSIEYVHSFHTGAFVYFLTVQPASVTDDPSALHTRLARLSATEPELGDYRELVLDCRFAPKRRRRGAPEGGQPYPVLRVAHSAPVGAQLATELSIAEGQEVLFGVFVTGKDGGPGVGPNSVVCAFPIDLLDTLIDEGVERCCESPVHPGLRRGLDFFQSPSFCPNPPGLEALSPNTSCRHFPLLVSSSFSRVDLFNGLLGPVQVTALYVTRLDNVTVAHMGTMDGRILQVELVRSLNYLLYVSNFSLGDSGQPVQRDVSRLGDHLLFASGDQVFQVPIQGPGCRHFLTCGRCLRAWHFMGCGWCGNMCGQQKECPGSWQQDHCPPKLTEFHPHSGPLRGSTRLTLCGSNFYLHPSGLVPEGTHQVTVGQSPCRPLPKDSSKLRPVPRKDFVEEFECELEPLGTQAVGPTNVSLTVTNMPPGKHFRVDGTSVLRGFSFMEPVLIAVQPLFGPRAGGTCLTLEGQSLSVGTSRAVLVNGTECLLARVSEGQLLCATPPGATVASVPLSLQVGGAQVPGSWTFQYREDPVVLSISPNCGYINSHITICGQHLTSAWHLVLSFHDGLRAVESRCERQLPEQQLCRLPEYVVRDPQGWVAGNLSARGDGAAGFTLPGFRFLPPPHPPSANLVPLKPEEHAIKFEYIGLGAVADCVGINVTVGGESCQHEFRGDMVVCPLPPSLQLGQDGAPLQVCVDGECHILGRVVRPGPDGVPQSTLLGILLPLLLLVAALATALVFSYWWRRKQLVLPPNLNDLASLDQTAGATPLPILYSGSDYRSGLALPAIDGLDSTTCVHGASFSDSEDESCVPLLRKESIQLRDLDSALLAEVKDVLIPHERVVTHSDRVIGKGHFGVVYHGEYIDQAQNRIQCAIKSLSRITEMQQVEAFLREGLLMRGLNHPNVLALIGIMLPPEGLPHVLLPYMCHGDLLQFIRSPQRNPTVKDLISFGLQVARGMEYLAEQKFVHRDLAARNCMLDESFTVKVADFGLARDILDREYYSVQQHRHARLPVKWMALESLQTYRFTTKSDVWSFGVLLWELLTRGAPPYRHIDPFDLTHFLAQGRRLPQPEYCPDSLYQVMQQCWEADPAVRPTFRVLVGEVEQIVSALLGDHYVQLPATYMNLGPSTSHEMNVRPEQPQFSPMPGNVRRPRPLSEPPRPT
Protocol: as §2

[5] = tested on: HCT-116 cells; assay: MTT assay, cytotoxic activity against HCT-116; assay type: cell-based; details: Homo sapiens, average of three separate determinations, SD shown
Text: as §1

[6] = tested on: Ron (MST1R); details: Figure 1; cited from earlier work
[7] = MTT assay, cytotoxicity against FHC cells; assay type: cell-based; details: FHC cells (normal colorectal mucosa epithelial cells); human normal colorectal mucosa epithelial cells; average of three separate determinations
Protocol: In order to investigate the cell selectivity index, the cytotoxicity of potent compounds against human normal colorectal mucosa epithelial cell FHC cells was determined.
as §1

[8] = biological target: ABL (Homo sapiens, UniProt P00519); assay: Mobility shift assay, ABL; assay type: biochemical; details: mean of two independent experiments, SD shown
Protocol: as §2

[9] = biological target: RET (Homo sapiens, UniProt P07949); assay: Mobility shift assay, RET; assay type: biochemical; details: mean of two independent experiments, SD shown
Protocol: as §2

[10] = biological target: T1, AXL (Homo sapiens, UniProt P30530); assay: Mobility shift assay, AXL; assay type: biochemical; details: mean of two independent experiments, SD shown
T1 sequence (P30530 26-894): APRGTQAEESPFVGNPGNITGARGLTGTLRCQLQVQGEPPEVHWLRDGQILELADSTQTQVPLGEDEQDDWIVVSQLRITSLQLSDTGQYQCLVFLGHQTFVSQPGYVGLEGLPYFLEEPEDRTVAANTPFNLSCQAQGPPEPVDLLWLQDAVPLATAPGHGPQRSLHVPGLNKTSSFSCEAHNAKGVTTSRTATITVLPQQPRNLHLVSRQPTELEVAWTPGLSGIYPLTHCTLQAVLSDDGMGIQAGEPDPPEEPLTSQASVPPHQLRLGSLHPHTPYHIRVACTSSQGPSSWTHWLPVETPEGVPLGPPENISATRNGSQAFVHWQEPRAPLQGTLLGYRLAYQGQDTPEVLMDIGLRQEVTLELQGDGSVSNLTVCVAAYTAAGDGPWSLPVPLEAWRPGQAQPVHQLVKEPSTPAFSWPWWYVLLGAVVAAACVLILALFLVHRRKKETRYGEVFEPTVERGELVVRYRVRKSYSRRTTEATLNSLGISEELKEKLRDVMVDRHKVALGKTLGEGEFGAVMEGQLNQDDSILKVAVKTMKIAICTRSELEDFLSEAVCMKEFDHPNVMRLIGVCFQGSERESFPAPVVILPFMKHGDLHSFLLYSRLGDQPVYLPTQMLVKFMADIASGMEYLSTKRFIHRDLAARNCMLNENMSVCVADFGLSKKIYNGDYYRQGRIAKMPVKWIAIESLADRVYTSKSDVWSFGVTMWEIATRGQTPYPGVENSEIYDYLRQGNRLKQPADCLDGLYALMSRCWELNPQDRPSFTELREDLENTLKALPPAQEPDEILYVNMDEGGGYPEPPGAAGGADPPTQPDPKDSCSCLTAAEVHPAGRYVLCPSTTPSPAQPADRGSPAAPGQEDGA
Protocol: as §2

[11] = biological target: T2, FLT3 (Homo sapiens, UniProt P36888); assay: Mobility shift assay, FLT3; assay type: biochemical; details: mean of two independent experiments, SD shown
T2 sequence (P36888 27-993): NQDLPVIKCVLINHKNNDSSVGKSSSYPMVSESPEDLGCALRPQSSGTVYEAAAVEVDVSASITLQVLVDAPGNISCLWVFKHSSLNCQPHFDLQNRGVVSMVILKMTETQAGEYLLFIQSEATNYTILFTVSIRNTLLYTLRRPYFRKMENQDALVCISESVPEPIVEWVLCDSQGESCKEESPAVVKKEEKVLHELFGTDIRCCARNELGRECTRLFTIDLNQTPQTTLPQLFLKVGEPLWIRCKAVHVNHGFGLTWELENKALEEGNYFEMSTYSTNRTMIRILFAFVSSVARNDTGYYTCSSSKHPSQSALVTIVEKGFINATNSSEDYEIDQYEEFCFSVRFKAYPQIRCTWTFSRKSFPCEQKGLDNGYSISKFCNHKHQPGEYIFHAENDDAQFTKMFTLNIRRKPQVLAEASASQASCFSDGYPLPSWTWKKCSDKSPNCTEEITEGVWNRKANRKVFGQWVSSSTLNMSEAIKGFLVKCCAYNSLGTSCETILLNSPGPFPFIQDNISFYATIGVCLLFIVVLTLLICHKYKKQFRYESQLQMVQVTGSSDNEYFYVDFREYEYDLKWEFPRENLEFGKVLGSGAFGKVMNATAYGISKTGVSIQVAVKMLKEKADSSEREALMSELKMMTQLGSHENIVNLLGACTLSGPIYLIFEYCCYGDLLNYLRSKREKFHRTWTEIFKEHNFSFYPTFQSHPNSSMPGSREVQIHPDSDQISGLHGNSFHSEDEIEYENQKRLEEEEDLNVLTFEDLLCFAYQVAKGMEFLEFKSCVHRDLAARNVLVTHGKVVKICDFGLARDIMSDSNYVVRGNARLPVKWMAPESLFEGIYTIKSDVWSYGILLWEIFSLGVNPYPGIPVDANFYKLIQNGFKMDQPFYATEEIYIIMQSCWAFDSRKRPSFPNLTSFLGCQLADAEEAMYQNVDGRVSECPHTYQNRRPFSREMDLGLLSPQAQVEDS
Protocol: as §2

[12] = biological target: PDGFRβ (Homo sapiens, UniProt P09619); assay: Mobility shift assay, PDGFRβ; assay type: biochemical; details: mean of two independent experiments, SD shown
Protocol: as §2

[13] = biological target: VEGFR-2 (Homo sapiens, UniProt P35968); assay: Mobility shift assay, VEGFR-2; assay type: biochemical; details: mean of two independent experiments, SD shown
Sequence of VEGFR-2 (P35968 20-1356): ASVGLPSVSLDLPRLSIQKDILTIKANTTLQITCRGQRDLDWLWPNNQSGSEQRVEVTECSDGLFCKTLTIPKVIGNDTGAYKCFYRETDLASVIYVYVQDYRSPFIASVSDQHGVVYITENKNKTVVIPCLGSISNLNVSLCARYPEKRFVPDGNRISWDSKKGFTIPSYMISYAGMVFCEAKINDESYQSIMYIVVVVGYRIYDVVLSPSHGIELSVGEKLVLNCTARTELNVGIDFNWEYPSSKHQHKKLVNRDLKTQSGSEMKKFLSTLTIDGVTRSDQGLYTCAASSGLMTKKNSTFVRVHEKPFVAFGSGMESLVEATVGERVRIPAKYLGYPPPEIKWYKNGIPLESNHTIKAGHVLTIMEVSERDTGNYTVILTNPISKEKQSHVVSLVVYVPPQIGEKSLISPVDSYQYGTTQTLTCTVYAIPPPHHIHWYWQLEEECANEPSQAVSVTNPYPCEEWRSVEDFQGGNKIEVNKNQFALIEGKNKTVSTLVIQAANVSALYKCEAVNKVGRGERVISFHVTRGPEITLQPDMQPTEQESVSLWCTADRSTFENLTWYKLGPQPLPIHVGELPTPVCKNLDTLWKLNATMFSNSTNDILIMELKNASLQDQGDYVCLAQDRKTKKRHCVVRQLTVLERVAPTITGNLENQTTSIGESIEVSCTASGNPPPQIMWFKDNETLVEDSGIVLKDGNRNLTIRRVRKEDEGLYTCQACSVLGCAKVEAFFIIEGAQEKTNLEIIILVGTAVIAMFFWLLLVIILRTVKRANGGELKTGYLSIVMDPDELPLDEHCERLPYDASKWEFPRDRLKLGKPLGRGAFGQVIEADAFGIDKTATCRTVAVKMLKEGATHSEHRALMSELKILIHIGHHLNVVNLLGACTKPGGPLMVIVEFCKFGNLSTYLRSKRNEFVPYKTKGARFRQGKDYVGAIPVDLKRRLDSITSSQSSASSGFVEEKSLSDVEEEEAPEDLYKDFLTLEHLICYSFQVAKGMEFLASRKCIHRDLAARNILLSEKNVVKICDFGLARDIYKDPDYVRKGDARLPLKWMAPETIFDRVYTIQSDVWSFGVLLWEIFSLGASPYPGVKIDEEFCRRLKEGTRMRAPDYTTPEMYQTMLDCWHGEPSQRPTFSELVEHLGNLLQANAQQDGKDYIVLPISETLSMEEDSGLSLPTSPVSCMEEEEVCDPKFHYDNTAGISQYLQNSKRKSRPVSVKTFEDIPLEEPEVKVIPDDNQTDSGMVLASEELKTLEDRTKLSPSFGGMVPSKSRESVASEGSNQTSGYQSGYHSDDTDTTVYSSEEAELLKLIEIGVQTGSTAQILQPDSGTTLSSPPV
Protocol: as §2

[14] = biological target: c-Src (Homo sapiens, UniProt P12931); assay: Mobility shift assay, c-Src; assay type: biochemical; details: mean of two independent experiments, SD shown
Sequence of c-Src (P12931 whole entry): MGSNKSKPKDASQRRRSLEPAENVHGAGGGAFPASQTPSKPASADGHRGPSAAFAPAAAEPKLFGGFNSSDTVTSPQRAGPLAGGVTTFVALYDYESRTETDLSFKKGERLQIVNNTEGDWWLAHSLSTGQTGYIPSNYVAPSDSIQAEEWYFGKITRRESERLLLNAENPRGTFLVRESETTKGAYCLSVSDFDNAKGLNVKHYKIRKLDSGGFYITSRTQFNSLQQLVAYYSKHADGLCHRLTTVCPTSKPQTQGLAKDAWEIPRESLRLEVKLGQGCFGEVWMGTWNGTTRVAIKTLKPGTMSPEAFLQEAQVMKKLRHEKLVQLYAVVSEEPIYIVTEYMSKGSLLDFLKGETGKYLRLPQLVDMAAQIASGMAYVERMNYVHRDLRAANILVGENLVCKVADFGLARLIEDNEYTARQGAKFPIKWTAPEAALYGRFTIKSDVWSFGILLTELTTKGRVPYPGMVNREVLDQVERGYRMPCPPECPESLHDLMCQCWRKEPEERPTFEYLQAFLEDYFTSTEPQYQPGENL
Protocol: as §2

[15] = Homo sapiens, HT-29, average of three separate determinations

Compound	IC50 [3] [nM]	IC50 [4] [nM]	IC50 [1, 15] [nM]	IC50 [5] [nM]	IC50 ([2]; Homo sapiens, COLO 205) [nM]	IC50 [7] [nM]	also measured
2–(4-((4–(4-(3–(2-(2,6-Difluorophenyl)-4-oxotetrahydrothiophen-3-yl)ureido)-2-fluorophenoxy)-6-methoxyquinazolin-7-yl)oxy)piperidin-1-yl)acetamide [Compound 19]	–	–	–	–	–	–	IC50 ([1]; average of three separate determinations): 8600 ± 670 nM; IC50 [2]: 5300 ± 470 nM
CCN(CC)C(=O)N1CCC(Oc2cc3nccc(Oc4ccc(NC(=O)NN5C(=O)CSC5c5c(F)cccc5F)cc4F)c3cc2OC)CC1 (stereo not drawn) [BC2021-104511-15i, 4-((4-(4-(3-(2-(2,6-difluorophenyl)-4-oxothiazolidin-3-yl)ureido)-2-fluorophenoxy)-6-methoxyquinolin-7-yl)oxy)-N,N-diethylpiperidine-1-carboxamide, reference compound]	270	110	790 ± 58	4800 ± 440	720 ± 65	–	–
CCOc1ccn(-c2ccc(F)cc2)c(=O)c1C(=O)Nc1ccc(Oc2ccnc(N)c2Cl)c(F)c1 [BMS-777607]	–	–	–	–	–	–	IC50 [6]: 1.8 nM
COCC(=O)N1CCC(Oc2cc3nccc(Oc4ccc(NC(=O)NN5C(=O)CSC5c5c(F)cccc5F)cc4F)c3cc2OC)CC1 (stereo not drawn) [Compound 10b, 1–(2-(2,6-Difluorophenyl)-4-oxothiazolidin-3-yl)-3–(3-fluoro-4-((6-methoxy-7-((1–(2-methoxyacetyl)piperidin-4-yl)oxy)quinolin-4-yl)oxy)phenyl)urea]	180	85	3000 ± 240	3700 ± 340	310 ± 21	> 10000	IC50 [8]: 3280 ± 260 nM; IC50 [9]: 1520 ± 140 nM; IC50 [10]: 1500 ± 150 nM; IC50 [11]: > 10000 nM; IC50 [12]: 1200 ± 95 nM; IC50 [13]: 2360 ± 180 nM; IC50 [14]: 690 ± 57 nM
CNC(=O)CN1CCC(Oc2cc3nccc(Oc4ccc(NC(=O)NN5C(=O)CSC5c5c(F)cccc5F)cc4F)c3cc2OC)CC1 (stereo not drawn) [Compound 10c, 2–(4-((4–(4-(3–(2-(2,6-Difluorophenyl)-4-oxothiazolidin-3-yl)ureido)-2-fluorophenoxy)-6-methoxyquinolin-7-yl)oxy)piperidin-1-yl)-N-methylacetamide]	140	72	4100 ± 270	5900 ± 530	440 ± 38	–	–
COc1cc2c(Oc3ccc(NC(=O)NN4C(=O)CSC4c4c(F)cccc4F)cc3F)ccnc2cc1OC1CCN(C(=O)CN(C)C)CC1 (stereo not drawn) [Compound 10d, 1–(2-(2,6-Difluorophenyl)-4-oxothiazolidin-3-yl)-3–(4-((7-((1-(dimethylglycyl)piperidin-4-yl)oxy)-6-methoxyquinolin-4-yl)oxy)-3-fluorophenyl)urea]	900	440	2900 ± 190	2400 ± 260	4900 ± 380	> 10000	–
COc1cc2c(Oc3ccc(NC(=O)NN4C(=O)CSC4c4c(F)cccc4F)cc3F)ccnc2cc1OC1CCN(CC(=O)N2CCOCC2)CC1 (stereo not drawn) [Compound 10f, 1–(2-(2,6-Difluorophenyl)-4-oxothiazolidin-3-yl)-3–(3-fluoro-4-((6-methoxy-7-((1–(2-morpholino-2-oxoethyl)piperidin-4-yl)oxy)quinolin-4-yl)oxy)phenyl)urea]	140	78	1900 ± 110	2600 ± 270	420 ± 34	> 10000	–
COc1cc2c(Oc3ccc(NC(=O)NN4C(=O)CSC4c4c(F)cccc4F)cc3F)ccnc2cc1OC1CCN(C(=O)COC(C)=O)CC1 (stereo not drawn) [Compound 10g, 2–(4-((4–(4-(3–(2-(2,6-Difluorophenyl)-4-oxothiazolidin-3-yl)ureido)-2-fluorophenoxy)-6-methoxyquinolin-7-yl)oxy)piperidin-1-yl)-2-oxoethyl acetate]	180	110	6900 ± 470	4800 ± 440	590 ± 45	–	–
COc1cc2c(Oc3ccc(NC(=O)NN4C(=O)CSC4c4c(F)cccc4F)cc3F)ccnc2cc1OC1CCN(C(=O)CO)CC1 (stereo not drawn) [Compound 10h, 1–(2-(2,6-Difluorophenyl)-4-oxothiazolidin-3-yl)-3–(3-fluoro-4-((7-((1–(2-hydroxyacetyl)piperidin-4-yl)oxy)-6-methoxyquinolin-4-yl)oxy)phenyl)urea]	220	160	6500 ± 430	–	850 ± 73	> 10000	–
COc1cc2c(Nc3ccc(NC(=O)NN4C(=O)CSC4c4c(F)cccc4F)cc3F)ccnc2cc1OC1CCN(CC(N)=O)CC1 (stereo not drawn) [Compound 10i, 2–(4-((4-((4–(3-(2–(2,6-Difluorophenyl)-4-oxothiazolidin-3-yl)ureido)-2-fluorophenyl)amino)-6-methoxyquinolin-7-yl)oxy)piperidin-1-yl)acetamide]	–	–	> 10000	> 10000	–	–	–
CNC(=O)c1c(C)oc2cc(Oc3ncnc4cc(OC)c(OC)cc34)ccc12 [Fruquintinib, reference compound]	–	–	1570	2200 ± 170	> 10000	–	–
Cn1cc(-c2cnc3ccc4ccc(CS(=O)(=O)NCc5ccccn5)cc4c(=O)c3c2)cn1 [MK-8033, 1-[3-(1-Methyl-1H-pyrazol-4-yl)-5-oxo-5H-benzo[4,5]cyclohepta[1,2-b]pyridin-7-yl]-N-(pyridin-2-ylmethyl)methanesulfonamide]	–	–	–	–	–	–	IC50 [6]: 7 nM
CNC(=O)c1cc(Oc2ccc(NC(=O)Nc3ccc(Cl)c(C(F)(F)F)c3)c(F)c2)ccn1 [Regorafenib, reference compound]	–	–	8490	8200 ± 750	> 10000	–	–
